{
  "source": "paper PMC6264874",
  "about": "“A single class of ARF GTPase activated by several pathway-specific ARF-GEFs regulates essential membrane traffic in Arabidopsis” (PLoS Genetics, 2018)",
  "key": {"[1]": {"target": "T1, ARFA (ARFB1b), residues 18-192 (Arabidopsis thaliana, UniProt Q9LFJ7)", "T1 construct": "N-terminally truncated (residues 18-192), 6xHis-tagged (pET30a), expressed in E. coli BL21(DE3), Ni-NTA purified", "T1 sequence (Q9LFJ7 18-192)": "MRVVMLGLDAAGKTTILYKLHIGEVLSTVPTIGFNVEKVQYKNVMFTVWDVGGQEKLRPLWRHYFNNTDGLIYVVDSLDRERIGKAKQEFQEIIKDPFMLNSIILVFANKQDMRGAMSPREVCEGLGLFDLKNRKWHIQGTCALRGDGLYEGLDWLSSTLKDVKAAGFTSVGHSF", "assay": "tryptophan fluorescence nucleotide exchange (ex […] nm, em […] nm)", "type": "binding", "details": "1 uM GDP-loaded ARF, 66 uM GTPgammaS, 50 nM SEC7 domain of BIG5 (residues 587-791), 10 mM MgCl2, pH 7.5, 37 C"}, "[2]": {"target": "T2, ARF1 (ARFA1c), residues 18-181 (Arabidopsis thaliana, UniProt P36397)", "T2 construct": "N-terminally truncated (residues 18-181), 6xHis-tagged (pET30a), expressed in E. coli BL21(DE3), Ni-NTA purified", "T2 sequence (P36397 18-181)": "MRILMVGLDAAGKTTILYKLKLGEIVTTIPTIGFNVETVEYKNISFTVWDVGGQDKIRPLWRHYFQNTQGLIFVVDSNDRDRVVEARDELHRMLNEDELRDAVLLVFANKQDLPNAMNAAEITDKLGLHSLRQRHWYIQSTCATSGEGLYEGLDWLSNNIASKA", "assay": "tryptophan fluorescence nucleotide exchange (ex […] nm, em […] nm)", "type": "binding", "details": "1 uM GDP-loaded ARF, 66 uM GTPgammaS, 50 nM SEC7 domain of BIG5 (residues 587-791), 10 mM MgCl2, pH 7.5, 37 C"}},
  "data": [
    {"smiles": "Nc1nc2c(ncn2[C@@H]2O[C@H](COP(=O)(O)OP(=O)(O)OP(O)(O)=S)[C@@H](O)[C@H]2O)c(=O)[nH]1", "note": "[GTPγS]", "values": [
      {"measurement": "tryptophan fluorescence nucleotide exchange (ex 298 nm, em 340 nm)", "setting": "[1]", "result": "The SEC7 domain of BIG5 catalyzed GDP-GTP exchange on ARF1(wt), ARFA(wt) and ARFA-Q71L"},
      {"measurement": "tryptophan fluorescence nucleotide exchange (ex 298 nm, em 340 nm)", "setting": "[2]", "result": "The SEC7 domain of BIG5 catalyzed GDP-GTP exchange on ARF1(wt), ARFA(wt) and ARFA-Q71L"}
    ]}
  ]
}
